From ChEMBL document CHEMBL5352475, “Design, synthesis, and biological evaluation of novel glutaminase 1 allosteric inhibitors with an alkane chain tail group” (Eur J Med Chem, 2023)
≈ marks a conversion by molar mass, not a printed value.

Experiments:
[1] = target: T1, Glutaminase kidney isoform, mitochondrial (Homo sapiens, UniProt O94925); test: Inhibition of GLS1 (unknown origin) preincubated for 10 mins followed by glutamine addition measured after 60 mins
T1 sequence (O94925 whole entry): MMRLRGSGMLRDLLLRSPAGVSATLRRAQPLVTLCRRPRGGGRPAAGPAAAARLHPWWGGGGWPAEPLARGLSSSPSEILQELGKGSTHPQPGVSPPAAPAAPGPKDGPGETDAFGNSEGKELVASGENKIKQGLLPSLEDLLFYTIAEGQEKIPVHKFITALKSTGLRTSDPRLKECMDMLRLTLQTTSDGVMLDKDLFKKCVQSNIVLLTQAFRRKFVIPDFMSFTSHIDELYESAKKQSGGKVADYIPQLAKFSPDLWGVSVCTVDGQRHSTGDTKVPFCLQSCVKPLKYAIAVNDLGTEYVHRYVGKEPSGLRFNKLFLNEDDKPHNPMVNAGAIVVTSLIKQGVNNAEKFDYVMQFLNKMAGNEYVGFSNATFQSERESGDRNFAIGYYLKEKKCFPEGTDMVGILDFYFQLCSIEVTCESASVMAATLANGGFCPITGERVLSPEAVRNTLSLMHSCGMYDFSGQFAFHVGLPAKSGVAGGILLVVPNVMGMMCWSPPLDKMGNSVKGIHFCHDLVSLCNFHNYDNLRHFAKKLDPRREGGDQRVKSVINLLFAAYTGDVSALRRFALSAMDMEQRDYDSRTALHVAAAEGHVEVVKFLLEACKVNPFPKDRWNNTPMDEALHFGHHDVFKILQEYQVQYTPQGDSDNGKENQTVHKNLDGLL

[2] = system: HCT-116; test: cells; details: Homo sapiens, HCT-116, 72 h
Description: Antiproliferative activity against human HCT-116 cells incubated for 72 hrs by MTT assay

[3] = Intrinsic aqueous solubility of the compound in PBS buffer at pH 7.4 measured after 72 hrs by LC-MS analysis; assay type: physicochemical; details: read-out: Intrinsic_solubility
[4] = Metabolic stability in human liver microsomes assessed as half life by LC-MS/MS analysis; assay type: ADME, Microsome
[5] = Metabolic stability in human liver microsomes assessed as clearance measured upto 120 mins by LC-MS/MS analysis; assay type: ADME, Microsome; details: read-out: CLH
[6] = target: T2, Glutaminase kidney isoform, mitochondrial (Homo sapiens) (UniProt O94925)
T2 sequence (whole entry): T1 sequence (O94925 whole entry)
Description: Stabilization of GLS1 (unknown origin) assessed as change in melting temperature by protein thermal assay

[7] = system: HCT-116; test: Antitumor activity against human HCT-116 cells xenografted in BALB/c nude mouse assessed as tumor growth inhibition at 100 mg/kg, ip for 20 days relative to control; assay type: functional; details: Mus musculus, HCT-116, 480 h, time 20 day, read-out: TGI

SMILES: CCCCC(=O)Nc1nnc(CCCCc2ccc(NC(=O)Cc3cccc(O)c3)nn2)s1
- IC50 [1]: 170 nM
- IC50 [2]: 6820 nM

SMILES: CCCCOc1cccc(CC(=O)Nc2ccc(CCCCc3nnc(NC(=O)C4CC4)s3)nn2)c1
- IC50 [1]: 160 nM
- solubility at 72 h [3]: 0.71 µg/mL (≈ 1.4 µM)
- IC50 [2]: 2640 nM

SMILES: C#CCCC(=O)Nc1nnc(CCCCc2ccc(NC(=O)Cc3cccc(O)c3)nn2)s1
- IC50 [1]: 580 nM
- IC50 [2]: 3440 nM

SMILES: CCCCC(=O)Nc1nnc(CCCCc2ccc(NC(=O)Cc3cccc(OCCC)c3)nn2)s1
- IC50 [1]: 130 nM
- IC50 [2]: 820 nM

SMILES: C=CCCC(=O)Nc1nnc(CCCCc2ccc(NC(=O)Cc3cccc(OC(=O)CCC=C)c3)nn2)s1
- IC50 [1]: 140 nM
- IC50 [2]: 7900 nM

SMILES: C=CCCOc1cccc(CC(=O)Nc2nnc(CCCCc3ccc(NC(=O)CCC=C)nn3)s2)c1
- IC50 [1]: 240 nM
- IC50 [2]: 1520 nM

SMILES: C=CCCCCOc1cccc(CC(=O)Nc2ccc(CCCCc3nnc(NC(=O)CCC=C)s3)nn2)c1
- IC50 [1]: 25.1 nM
- half-life [4]: 25.1 min
- microsomal CLint [5]: 138 µL/min/mg
- solubility at 72 h [3]: 3.6 µg/mL (≈ 6.56 µM)
- ΔTm [6]: 13.9 °C
- IC50 [2]: 310 nM

SMILES: C=CCCCCOc1cccc(CC(=O)Nc2ccc(CCCCc3nnc(N)s3)nn2)c1
- IC50 [1]: 280 nM
- IC50 [2]: 1090 nM

SMILES: CCCCCCCCOc1cccc(CC(=O)Nc2ccc(CCCCc3nnc(NC(=O)CCCC)s3)nn2)c1
- IC50 [1]: 17 nM
- IC50 [2]: 210 nM

SMILES: C=CCCOc1cccc(CC(=O)Nc2ccc(N3CCC(Nc4nnc(NC(=O)CCC=C)s4)CC3)nn2)c1
- IC50 [1]: 19 nM
- half-life [4]: 68.6 min
- microsomal CLint [5]: 50.2 µL/min/mg
- IC50 [2]: 430 nM

SMILES: C#CCCC(=O)Nc1nnc(CCCCc2ccc(NC(=O)Cc3cccc(OCCC=C)c3)nn2)s1
- IC50 [1]: 290 nM
- IC50 [2]: 2250 nM

SMILES: O=C(Cc1ccccc1)Nc1nnc(CCSCCc2nnc(NC(=O)Cc3ccccc3)s2)s1
- inhibition in vivo at 100 mg/kg [7]: 31.3%

SMILES: CCCCCNc1cccc(CC(=O)Nc2ccc(CCCCc3nnc(NC(=O)CCCC)s3)nn2)c1
- IC50 [1]: > 20000 nM

SMILES: C=CCCC(=O)Nc1nnc(CCCCc2ccc(NC(=O)Cc3cccc(O)c3)nn2)s1
- IC50 [1]: 530 nM
- IC50 [2]: 2630 nM

SMILES: C=CCCOc1cccc(CC(=O)Nc2nnc(CCCCc3ccc(NC(=O)CC=C)nn3)s2)c1
- IC50 [1]: > 5000 nM
- IC50 [2]: 24900 nM

SMILES: CCCCOc1cccc(CC(=O)Nc2ccc(OC3CC4CCC(C3)N4c3nnc(NC(=O)CCCC)s3)nn2)c1 (stereo not given)
- IC50 [1]: > 20000 nM
- IC50 [2]: 16900 nM

SMILES: CCCCCOc1cccc(CC(=O)Nc2ccc(CCCCc3nnc(NC(=O)C4CC4)s3)nn2)c1
- IC50 [1]: 36 nM
- solubility at 72 h [3]: 0.52 µg/mL (≈ 0.995 µM)
- IC50 [2]: 4030 nM

SMILES: CCCCCCCOc1cccc(CC(=O)Nc2ccc(CCCCc3nnc(NC(=O)CCCC)s3)nn2)c1
- IC50 [1]: 17 nM
- IC50 [2]: 1960 nM

SMILES: CCCCC(=O)Nc1nnc(CCCCc2ccc(NC(=O)Cc3cccc(OC)c3)nn2)s1
- IC50 [1]: 190 nM
- IC50 [2]: 2460 nM

SMILES: C=CCCCOc1cccc(CC(=O)Nc2ccc(CCCCc3nnc(NC(=O)CCC=C)s3)nn2)c1
- IC50 [1]: 79 nM
- IC50 [2]: 920 nM

SMILES: CCCCNc1cccc(CC(=O)Nc2ccc(CCCCc3nnc(NC(=O)CCCC)s3)nn2)c1
- IC50 [1]: > 20000 nM

SMILES: C=CCCOc1cccc(CC(=O)Nc2ccc(CCCCc3nnc(NC(=O)CCC=C)s3)nn2)c1
- IC50 [1]: 87 nM
- IC50 [2]: 1370 nM

SMILES: CCCCCOc1cccc(CC(=O)Nc2ccc(CCCCc3nnc(NC(=O)CCCC)s3)nn2)c1
- IC50 [1]: 24 nM
- IC50 [2]: 2180 nM

SMILES: CCCCC(=O)Nc1nnc(CCCCc2ccc(NC(=O)Cc3cccc(OCC)c3)nn2)s1
- IC50 [1]: 220 nM
- IC50 [2]: 8540 nM

SMILES: CCCCOc1cccc(CC(=O)Nc2ccc(CCCCc3nnc(NC(=O)C4CC(F)(F)C4)s3)nn2)c1
- IC50 [1]: 68 nM
- solubility at 72 h [3]: 6.23 µg/mL (≈ 11.2 µM)
- IC50 [2]: 1860 nM

SMILES: CCCCC(=O)Nc1nnc(CCCCc2ccc(NC(=O)Cc3cccc(N)c3)nn2)s1
- IC50 [1]: 520 nM

SMILES: CCCCCCOc1cccc(CC(=O)Nc2ccc(CCCCc3nnc(NC(=O)C4CC(F)(F)C4)s3)nn2)c1
- IC50 [1]: 24 nM
- solubility at 72 h [3]: 4.1 µg/mL (≈ 6.99 µM)
- IC50 [2]: 1230 nM

SMILES: C=CCCCOc1cccc(CC(=O)Nc2nnc(CCCCc3ccc(NC(=O)CC=C)nn3)s2)c1
- IC50 [1]: > 5000 nM
- IC50 [2]: 29400 nM

SMILES: C=CCCOc1cccc(CC(=O)Nc2ccc(CCCCc3nnc(NC(=O)CC=C)s3)nn2)c1
- IC50 [1]: 110 nM
- IC50 [2]: 1600 nM

SMILES: C=CCCCCOc1cccc(CC(=O)Nc2nnc(CCCCc3ccc(NC(=O)CCC=C)nn3)s2)c1
- IC50 [1]: 34 nM
- IC50 [2]: 660 nM

SMILES: CCCCCCNc1cccc(CC(=O)Nc2ccc(CCCCc3nnc(NC(=O)CCCC)s3)nn2)c1
- IC50 [1]: > 20000 nM

SMILES: C=CCCCOc1cccc(CC(=O)Nc2nnc(CCCCc3ccc(NC(=O)CCC=C)nn3)s2)c1
- IC50 [1]: 36 nM
- IC50 [2]: 3700 nM

SMILES: C#CCOc1cccc(CC(=O)Nc2ccc(CCCCc3nnc(NC(=O)CCCC)s3)nn2)c1
- IC50 [1]: 1050 nM
- IC50 [2]: > 10000 nM

SMILES: C#CCCC(=O)Nc1nnc(CCCCc2ccc(NC(=O)Cc3cccc(OC(=O)CCC#C)c3)nn2)s1
- IC50 [1]: 390 nM
- IC50 [2]: 5260 nM

SMILES: C=CCCCCOc1cccc(CC(=O)Nc2ccc(CCCCc3nnc(NC(=O)C4CC(F)(F)C4)s3)nn2)c1
- IC50 [1]: 32 nM
- half-life [4]: 87.8 min
- microsomal CLint [5]: 39.5 µL/min/mg
- IC50 [2]: 1680 nM

SMILES: CCCCOc1cccc(CC(=O)Nc2ccc(CCCCc3nnc(NC(=O)CCCC)s3)nn2)c1
- IC50 [1]: 27 nM
- half-life [4]: 54.6 min
- microsomal CLint [5]: 63.5 µL/min/mg
- IC50 [2]: 380 nM

SMILES: CCCCCCOc1cccc(CC(=O)Nc2ccc(CCCCc3nnc(NC(=O)CCCC)s3)nn2)c1
- IC50 [1]: 19 nM
- half-life [4]: 26 min
- microsomal CLint [5]: 134 µL/min/mg
- IC50 [2]: 380 nM
